Assay [1] deals with T1, UL80.5 gene product/MCP interaction (Human cytomegalovirus, UniProt P16729).
T1 construct: Recombinant baculovirus Autographa californiica nuclear polyhedrosis virus expressing full-length CMV MCP; made in house; host or cells: Sf9 insect cells infected with recombinant baculovirus; crude clarified supernatant used for coating
As to the kind of experiment: competitive binding assay (ELISA): inhibition of UL80.5 gene product/MCP interaction. Also on record: species or system CMV. To be noted: 0.1 μg of UL80.5 peptide; compound 0.4 to 50 μM; average of six independent experiments (FIG. 3); read-out: average IC50 (concentration at which binding is reduced by 50%). On the procedure: Inhibitor activity was detected using a competitive binding assay. Scaffolding polypeptide and the compound to be tested are added sequentially or simultaneously to a microtiter plate precoated with full-length MCP. A primary antibody specific for the scaffolding polypeptide is then added, followed by a labeled secondary antibody directed against the primary antibody, and signal from the label measured. If the compound is unable to compete for binding, then the peptide binds to MCP and a signal is detected. […] In all assays a background control is included in which no peptide is added, but all other reagents are identical. In addition, a set of samples in which no compound is added is also included. This value is set at 100% and the percent inhibition is calculated relative to this number. […]
In order to determine if potential inhibitors of UL80.5 gene product/MCP interaction could be detected with this assay, compounds were assayed for activity.
In order to assay for inhibitors in a high throughput manner, the ELISA assay described above was modified. […] The plates were washed 6 times, and 50 μl of Wallac enhancement solution (Wallac; Gaithersburg, Md.) added, and the plate shaken for 10 minutes, before being read on a Wallac VICTOR microtiter plate reader (Wallac; Gaithersburg, Md.).
For orientation: ELISA stands for enzyme-linked immunosorbent assay.

The next assay addresses MCP protein (Human cytomegalovirus, UniProt P16729). To be noted: increasing concentrations of peptide (0.1 to 10 μg), FIG. 2.

Method for MCP protein: To investigate the interaction between the UL80.5 peptide and MCP, an ELISA assay was developed. For this purpose, a 96 well microtiter plate (Nunc—Immuno Maxisorp) was coated with 100 μl per well of a 1/50 dilution (in carbonate buffer: 40 mM NaCO3, 36 mM NaHCO3, 3mM Na Azide pH 9.6) of recombinant baculovirus supernatant containing MCP (prepared as described above). The plate was incubated at 37° C. for 2 hours. The plate was then washed 4-5 times in 200 μl per well of PBS (1.37 M NaCl, 80 mM Na2HPO4, 26.8 KCl, 14.7 mM KH2PO4, pH 7.0) containing 0.2 % Triton X-100, followed by incubation with 0.1 μg of UL80.5 peptide (SEQ ID NO:3) diluted in carbonate buffer for 1 hour at 37° C. The plate was then washed to remove any unbound peptide, and subsequent nonspecific binding blocked by the addition of 200 μl of 1% casein block (Pierce; Rockford, Ill.) 3 times for 30 seconds each at room temperature. The plate was washed as before, and 200 μl of a primary antipeptide antibody (prepared as described above) diluted 1/5000 in wash buffer (PBS containing 0.2% Triton X-100) was added and incubated for 1 hour at room temperature. […] Following a 30 minute room temperature incubation in the dark, the plate was read at 450 nm on a microtiter plate reader. […]

`NCCc1c[nH]c2ccc(-c3ccc4ccccc4c3)cc12` [Target compound 6]: the IC50 in assay [1] turned out to be 4.2 µM. In the case of “NH2-Ala-Ser-Gln-Ser-Pro-Pro-Lys-Asp-Met-Val-Asp-Leu-Asn-Arg-Arg-Ile-Phe-Val-Ala-Ala-Leu-Asn-Lys-Leu-Glu-COOH [UL80.5 peptide]”, the “concentration of peptide at which 50% binding to MCP occurred” value at MCP protein is 0.3 µg.

The values above are taken from patent US20020004198A1, “Novel anti-infectives” (priority 1998, published 2002).
